Patent publication US12558343B2, “Medical use of icaritin” (Lunan Pharmaceutical Group Corporation, priority 2020, dated 2026)
Marks after values point to notes of the source that are not given here.

Columns and labels:
[1] = tested on: gastrointestinal bleeding caused by aspirin; assay: Gastrointestinal bleeding caused by aspirin in rats, gastric mucosal bleeding; format: in vivo, SD rats; settings: icaritin 18 mg/kg i.g. with aspirin 500 mg/kg i.g., 24 h
Method: After 24 h of the intragastric administration, the rats were anesthetized, sacrificed, and dissected. Bleeding, erosion and ulcers of the gastric mucosa surface of the rats were observed.

[2] = tested on: hemorrhagic transformation model induced by clopidogrel combined with cerebral ischemia-reperfusion; assay: Hemorrhagic transformation after cerebral ischemia-reperfusion (MCAO) caused by clopidogrel, bleeding rate; format: in vivo, ICR mice; settings: for Number of animals with cerebral hemorrhage: 24 h after MCAO; for Bleeding rate %: model group 80.0
Method: (§1) 5-week-old ICR male mice were fed to 6-week-old and divided into a control group, a model group, an icaritin-3 mg/kg group, an icaritin-6 mg/kg group, an icaritin-12 mg/kg group, and an icariin-12 mg/kg group according to body weight. From day 1 to day 3 after the grouping, the mice in each icaritin group were separately intragastrically administrated with 3, 6, and 12 mg/kg of icaritin and the mice in the icariin group was intragastrically administrated with 12 mg/kg of icariin once a day, and the mice in other groups were intragastrically administrated with a corresponding vehicle; and except the control group, the mice in other groups were intragastrically administrated with aspirin (100 mg/kg) or clopidogrel (15 mg/kg) once a day at a volume of 10 mL/kg.
(§2) On day 3, 10 min after the administration, the mice were anesthetized by intraperitoneal injection of 70 mg/kg of pentobarbital sodium and subjected to a cerebral ischemia-reperfusion (middle cerebral artery occlusion, MCAO) surgery with ischemia for 1 h and reperfusion for 23 h.
(§3) 24 h after the surgery was an end point of the experiment.
(§4) Bleeding rate: the mice were anesthetized by intraperitoneal injection of 70 mg/kg of pentobarbital sodium, a brain tissue was taken out, cerebral hemorrhage was recorded and a bleeding rate of the mice in each group was calculated. Cerebral hemorrhage rate %=number of animals with cerebral hemorrhage/number of surviving animals in each group×100.

[3] = tested on: IX-knockout mice with hemophilia; assay: Tail-cut bleeding time of coagulation factor IX-knockout mice with hemophilia; format: in vivo
Method: One hour after the last administration, the tails of the mice were cut and bleeding time of each mouse was measured.

[4] = tested on: platelet aggregation induced by adenosine diphosphate; assay: In-vitro platelet aggregation in platelet-rich plasma induced by adenosine diphosphate; format: cell-based, domestic rabbits; settings: rabbit PRP, ADP 25 μmol/L, vs 1% dimethyl sulfoxide control
Method: After domestic rabbits were locally anesthetized with procaine, common carotid artery was surgically separated, blood was collected and anticoagulated with 3.8% sodium citrate, the anticoagulated blood was centrifuged at 800 r/min for 10 min to prepare platelet-rich plasma (PRP), the remaining part was centrifuged at […] for 10 min to prepare platelet-poor plasma (PPP), and a platelet aggregation experiment was performed. 265 μL of PRP and 30 μL of icaritin were added to a test tube (to enable final concentrations of the icaritin to be 0.1 mmol/L, 0.5 mmol/L, and 5 mmol/L separately), incubation was performed for 5 min, 5 μL of adenosine diphosphate (at a final concentration of 25 μmol/L) was added as an inducer, and a maximum aggregation rate within 5 min was observed and recorded. 1% by mass of dimethyl sulfoxide was used as a control and a promoting effect of the icaritin of each concentration on platelet aggregation induced by adenosine diphosphate was observed.

[5] = tested on: prolonged bleeding time caused by heparin sodium; assay: Tail-cut bleeding time in mice, prolonged by heparin sodium; format: in vivo, ICR mice; settings: heparin sodium 150 U/kg i.v.
Excerpt: 72 ICR mice aged 5-6 weeks, weighing 19-21 g, and half male and half female were selected. The mice were quarantined for 7 days after entering a laboratory and healthy mice were selected as test animals. The mice were weighed on first and last days of quarantine. According to the body weight on the last day of the quarantine, the male and female animals were divided into six groups by a simplified random method, namely, a normal group (C), a model group (V), low-, medium- and high-dose icaritin groups (2, 6, and 18 mg/kg, L, M, H) and a positive control drug group (200 mg/kg of etamsylate, P).
After 15 min of the modeling, the tails of the mice were cut and bleeding time of each mouse was measured.

[6] = tested on: hemorrhagic transformation model induced by aspirin combined with cerebral ischemia-reperfusion; assay: Hemorrhagic transformation after cerebral ischemia-reperfusion (MCAO) caused by aspirin, bleeding rate; format: in vivo, ICR mice; settings: for Number of animals with cerebral hemorrhage: 24 h after MCAO; for Bleeding rate %: model group 85.7
Method: as §1, §2, §3, §4

[7] = tested on: activated partial thromboplastin time; assay: Activated partial thromboplastin time, rabbit model of acquired hemophilia A; format: in vivo, New Zealand rabbits
Method: Twenty-four healthy New Zealand rabbits were selected and randomly divided into a control group, a model group and a treatment group with 8 rabbits in each group. Each rabbit weighed about 1.5 kg. The rabbits were fed in separate stainless steel cages at a room temperature of 18-25° C. The rabbits in each group were given a normal diet without any special treatment. One week later, the rabbit was anesthetized with 2% pentobarbital (1.5 ml/kg) via the marginal ear vein, and the left femoral vein of the rabbit was isolated and exposed for injection. The plasma of patients with acquired hemophilia A (confirmed by the Department of Hematology, Linyi People's Hospital) was intravenously injected into the rabbits in the model group and the treatment group at 2 ml/kg of rabbit body weight. The rabbits in the treatment group were immediately intragastrically administrated with icaritin at 18 mg/kg after the injection was completed and the rabbits in the model group were intragastrically administrated with a same amount of normal saline. The rabbits in the control group were intravenously injected with a same amount of normal human plasma. Blood was drawn from the marginal ear vein 30 min before and 30 min, 60 min, 90 min, and 120 min after the injection of the plasma separately, 3.8% of sodium citrate (1:9) was added for anticoagulation, and the anticoagulated blood was centrifuged at 3,000 r/m to separate plasma.
Referring to the instructions of the kit, 0.1 mL of rabbit plasma was taken, 0.1 mL of a thromboplastin time reagent was added, the materials were mixed, an obtained mixture was subjected to warm bath at 37° C. for 2 min, 0.1 mL of 0.025 M calcium chloride pre-warmed at 37° C. was added, the materials were uniformly mixed, a value of thromboplastin time at each time point was measured by immediately starting a stopwatch, the thromboplastin time at each time point was repeatedly detected twice, and an average value was obtained.

COc1ccc(-c2oc3c(CC=C(C)C)c(O)cc(O)c3c(=O)c2O)cc1 [Icaritin]
Bleeding rate ([1]; model group 66.7): 16.7^## %
Number of bleeding animals ([1]; of 12 rats): 2
Number of animals with cerebral hemorrhage ([2]; 3 mg/kg i.g. Day 1-3 with clopidogrel 15 mg/kg, of 7 animals): 3
Bleeding rate % ([2]; 3 mg/kg i.g. Day 1-3 with clopidogrel 15 mg/kg): 42.9%
Number of animals with cerebral hemorrhage ([2]; 6 mg/kg i.g. Day 1-3 with clopidogrel 15 mg/kg, of 8 animals): 2
Bleeding rate % ([2]; 6 mg/kg i.g. Day 1-3 with clopidogrel 15 mg/kg): 25.0%
Number of animals with cerebral hemorrhage ([2]; 12 mg/kg i.g. Day 1-3 with clopidogrel 15 mg/kg, of 8 (icaritin) or 7 (icariin) animals): 2
Bleeding rate % ([2]; 12 mg/kg i.g. Day 1-3 with clopidogrel 15 mg/kg): 25.0%
Bleeding time ([3]; group B, 3 mg/kg i.g. once a day 11 days, 1 h after last administration, control 37.8 ± 12.4): 25.5 ± 8.9 min
Bleeding time ([3]; group C, 6 mg/kg i.g. once a day 11 days): 20.4 ± 6.9 min
Bleeding time ([3]; group D, 18 mg/kg i.g. once a day 11 days): 16.5 ± 9.7 min
Aggregation-promoting rate ([4]; 0.1 mmol/L): 23.3 ± 4.5%
Aggregation-promoting rate ([4]; 0.5 mmol/L): 38.9 ± 8.7%
Aggregation-promoting rate ([4]; 5 mmol/L): 52.2 ± 9.0%
Bleeding time ([5]; group H, 18 mg/kg i.g. once a day 5 days): 15.9 ± 6.6^$ $ & min
Bleeding time ([5]; group L, 2 mg/kg i.g. once a day 5 days, tail cut 15 min after modeling): 26.4 ± 8.8^$ min
Bleeding time ([5]; group M, 6 mg/kg i.g. once a day 5 days): 22.7 ± 9.1^$ min
Number of animals with cerebral hemorrhage ([6]; 3 mg/kg i.g. Day 1-3 with aspirin 100 mg/kg, of 8 animals): 3
Bleeding rate % ([6]; 3 mg/kg i.g. Day 1-3 with aspirin 100 mg/kg): 37.5%
Number of animals with cerebral hemorrhage ([6]; 6 mg/kg i.g. Day 1-3 with aspirin 100 mg/kg, of 8 animals): 2
Bleeding rate % ([6]; 6 mg/kg i.g. Day 1-3 with aspirin 100 mg/kg): 25.0%
Number of animals with cerebral hemorrhage ([6]; 12 mg/kg i.g. Day 1-3 with aspirin 100 mg/kg, of 9 (icaritin) or 8 (icariin) animals): 2
Bleeding rate % ([6]; 12 mg/kg i.g. Day 1-3 with aspirin 100 mg/kg): 22.2%
Thromboplastin time ([7]; icaritin 18 mg/kg i.g. after plasma injection, 30 min after injection): 40.4 ± 3.23^$
Thromboplastin time ([7]; icaritin 18 mg/kg i.g., 60 min after injection): 39.9 ± 4.09$ $
Thromboplastin time ([7]; icaritin 18 mg/kg i.g., 90 min after injection): 40.4 ± 5.67$ $
Thromboplastin time ([7]; icaritin 18 mg/kg i.g., 120 min after injection): 41.3 ± 6.21^$ $
Thromboplastin time ([7]; treatment group, 30 min before injection of patient plasma (before icaritin)): 36.8 ± 4.12
